# Reference: patent publication US10800781B2, “Compounds useful as inhibitors of ATR kinase” (Vertex Pharmaceuticals Incorporated, priority 2014, dated 2020)
# What was measured:
# [1] = biological target: T1, full-length ATR (Homo sapiens, UniProt Q13535); assay: ATR inhibition assay (radioactive-phosphate incorporation); assay type: biochemical; conditions: 5 nM full-length ATR, 10 μM ATP, 800 μM target peptide, 25° C.; read-out: Ki values (Ki(app)) for inhibiting ATR
# T1 construct: Assays are carried out at 25° C. in the presence of 5 nM full-length ATR
# T1 sequence (Q13535 whole entry): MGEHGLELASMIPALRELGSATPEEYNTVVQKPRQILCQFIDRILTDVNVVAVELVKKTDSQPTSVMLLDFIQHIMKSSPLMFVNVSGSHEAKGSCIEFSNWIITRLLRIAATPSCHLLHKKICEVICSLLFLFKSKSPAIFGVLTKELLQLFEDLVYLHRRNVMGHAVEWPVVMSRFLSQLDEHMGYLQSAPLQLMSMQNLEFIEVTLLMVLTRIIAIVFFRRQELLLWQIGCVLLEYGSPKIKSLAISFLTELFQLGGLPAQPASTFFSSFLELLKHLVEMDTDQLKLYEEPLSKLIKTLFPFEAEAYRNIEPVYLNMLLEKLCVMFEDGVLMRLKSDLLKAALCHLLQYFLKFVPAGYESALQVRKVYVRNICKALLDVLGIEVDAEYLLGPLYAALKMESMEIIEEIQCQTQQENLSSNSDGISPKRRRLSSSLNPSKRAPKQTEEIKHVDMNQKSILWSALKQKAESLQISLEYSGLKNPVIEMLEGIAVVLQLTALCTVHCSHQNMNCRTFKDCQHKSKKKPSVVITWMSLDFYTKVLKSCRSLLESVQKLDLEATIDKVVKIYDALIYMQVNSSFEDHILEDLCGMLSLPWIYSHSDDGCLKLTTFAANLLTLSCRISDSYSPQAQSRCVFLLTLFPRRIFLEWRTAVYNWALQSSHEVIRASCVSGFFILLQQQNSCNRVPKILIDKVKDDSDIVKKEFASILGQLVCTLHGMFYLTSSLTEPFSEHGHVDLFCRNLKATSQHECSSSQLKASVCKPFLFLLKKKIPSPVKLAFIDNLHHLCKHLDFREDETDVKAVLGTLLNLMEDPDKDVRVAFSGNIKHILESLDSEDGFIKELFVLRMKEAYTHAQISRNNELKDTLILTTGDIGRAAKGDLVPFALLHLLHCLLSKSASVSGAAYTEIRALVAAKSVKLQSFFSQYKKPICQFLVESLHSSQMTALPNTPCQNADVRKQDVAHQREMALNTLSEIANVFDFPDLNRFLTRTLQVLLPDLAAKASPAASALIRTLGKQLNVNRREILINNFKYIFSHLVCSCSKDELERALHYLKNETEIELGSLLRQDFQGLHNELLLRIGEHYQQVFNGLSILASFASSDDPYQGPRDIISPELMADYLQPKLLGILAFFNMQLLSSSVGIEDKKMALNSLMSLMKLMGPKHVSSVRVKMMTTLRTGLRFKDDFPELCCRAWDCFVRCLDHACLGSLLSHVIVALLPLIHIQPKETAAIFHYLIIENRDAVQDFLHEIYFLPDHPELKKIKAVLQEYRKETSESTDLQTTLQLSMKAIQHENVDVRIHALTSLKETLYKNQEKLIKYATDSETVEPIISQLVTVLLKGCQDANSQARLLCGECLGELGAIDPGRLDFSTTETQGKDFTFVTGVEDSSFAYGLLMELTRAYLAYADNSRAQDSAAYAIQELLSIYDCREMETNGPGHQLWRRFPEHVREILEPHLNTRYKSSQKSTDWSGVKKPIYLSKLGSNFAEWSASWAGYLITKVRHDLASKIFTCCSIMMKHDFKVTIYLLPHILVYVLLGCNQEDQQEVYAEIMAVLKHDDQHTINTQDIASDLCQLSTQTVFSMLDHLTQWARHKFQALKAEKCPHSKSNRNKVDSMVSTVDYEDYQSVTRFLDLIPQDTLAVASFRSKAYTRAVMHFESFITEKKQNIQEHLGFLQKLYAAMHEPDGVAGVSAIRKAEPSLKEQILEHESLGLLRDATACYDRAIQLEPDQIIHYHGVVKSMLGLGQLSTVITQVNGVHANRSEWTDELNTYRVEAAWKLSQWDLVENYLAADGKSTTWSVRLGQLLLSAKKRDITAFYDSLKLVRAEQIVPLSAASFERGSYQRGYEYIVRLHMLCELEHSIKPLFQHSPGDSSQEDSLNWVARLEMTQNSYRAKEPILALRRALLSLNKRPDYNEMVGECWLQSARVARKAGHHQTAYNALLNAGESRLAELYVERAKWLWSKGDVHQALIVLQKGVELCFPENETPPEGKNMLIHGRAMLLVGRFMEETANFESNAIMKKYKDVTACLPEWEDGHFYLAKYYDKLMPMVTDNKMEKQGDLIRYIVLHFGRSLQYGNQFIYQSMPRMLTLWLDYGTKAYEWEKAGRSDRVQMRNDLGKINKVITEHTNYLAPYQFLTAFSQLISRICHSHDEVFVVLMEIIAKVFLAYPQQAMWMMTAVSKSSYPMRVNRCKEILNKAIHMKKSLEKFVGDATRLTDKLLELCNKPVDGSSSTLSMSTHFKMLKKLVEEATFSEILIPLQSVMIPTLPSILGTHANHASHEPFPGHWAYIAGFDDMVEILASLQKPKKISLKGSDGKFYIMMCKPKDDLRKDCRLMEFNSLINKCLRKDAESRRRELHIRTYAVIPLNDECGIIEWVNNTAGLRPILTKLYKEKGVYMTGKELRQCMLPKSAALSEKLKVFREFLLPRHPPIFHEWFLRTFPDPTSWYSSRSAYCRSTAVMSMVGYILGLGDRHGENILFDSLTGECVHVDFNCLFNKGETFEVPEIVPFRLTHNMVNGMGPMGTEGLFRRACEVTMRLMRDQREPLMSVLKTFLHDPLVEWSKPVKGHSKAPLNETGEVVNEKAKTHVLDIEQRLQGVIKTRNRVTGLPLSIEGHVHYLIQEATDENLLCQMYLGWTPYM
# Experimental: Compounds can be screened for their ability to inhibit ATR kinase using a radioactive-phosphate incorporation assay. Assays are carried out in a mixture of 50 mM Tris/HCl (pH 7.5), 10 mM MgCl2 and 1 mM DTT. Final substrate concentrations are 10 μM [γ-33P]ATP (3mCi 33P ATP/mmol ATP, Perkin Elmer) and 800 μM target peptide (ASELPASQPQPFSAKKK).
# Assays are carried out at 25° C. in the presence of 5 nM full-length ATR. An assay stock buffer solution is prepared containing all of the reagents listed above, with the exception of ATP and the test compound of interest. 13.5 μL of the stock solution is placed in a 96 well plate followed by addition of 2 μL of DMSO stock containing serial dilutions of the test compound (typically starting from a final concentration of 15 μM with 3-fold serial dilutions) in duplicate (final DMSO concentration 7%). The plate is pre-incubated for 10 minutes at 25° C. and the reaction initiated by addition of 15 μL [γ-33P]ATP (final concentration 10 μM).
# The reaction is stopped after 24 hours by the addition of 30 μL 0.1M phosphoric acid containing 2 mM ATP. […]
# After removing mean background values for all of the data points, Ki(app) data are calculated from non-linear regression analysis of the initial rate data using the Prism software package (GraphPad Prism version 3.0cx for Macintosh, GraphPad Software, San Diego Calif., USA).
# [2] = test system: HCT116 colorectal cancer cells; assay: Cisplatin sensitization assay, 96 h cell viability (MTS); assay type: cell-based; conditions: compound and Cisplatin added simultaneously
# Experimental: Compounds can be screened for their ability to sensitize HCT116 colorectal cancer cells to Cisplatin using a 96 h cell viability (MTS) assay. […] Compounds and Cisplatin are then both added simultaneously to the cell media in 2-fold serial dilutions from a top final concentration of 10 μM as a full matrix of concentrations in a final cell volume of 200 μl, and the cells are then incubated at 37° C. in 5% CO2. After 96 h, 40 μl of MTS reagent (Promega G358a) is added to each well and the cells are incubated for 1 h at 37° C. in 5% CO2. Finally, absorbance is measured at 490 nm using a SpectraMax Plus 384 reader (Molecular Devices) and the concentration of compound required to reduce the IC50 of Cisplatin alone by at least 3-fold (to 1 decimal place) can be reported.
smiles,measurement,setting,value
"Cn1cncc1-c1c(F)cncc1NC(=O)c1c(N)nn2cc(F)cnc12 [Compound I-1, 2-amino-6-fluoro-N-(5-fluoro-4-(1-methyl-1H-imidazol-5-yl)pyridin-3-yl)pyrazolo[1,5-a]pyrimidine-3-carboxamide]",Ki,[1],< 1000 nM
same,Cisplatin sensitization values (concentration of compound required to reduce the IC50 of Cisplatin alone by at least 3-fold),[2],< 200 nM
